The subject of this experiment is NL-RLuc virus (recombinant HIV NL4-3 proviral clone with Renilla Luciferase) in MT-2 cells. Kind of experiment: Inhibition of HIV Replication (NL-RLuc luciferase reporter virus, MT-2 cells). The experiment is classed as cell-based. The conditions noted are these: MT2, 120 h. From the text: Inhibition of HIV Replication:
A recombinant NL-RLuc proviral clone was constructed in which a section of the nef gene from NL4-3 was replaced with the Renilla Luciferase gene. This virus is fully infectious and can undergo multiple cycles of replication in cell culture. In addition, the luciferous reporter provides a simple and easy method for quantitating the extent of virus growth and consequently, the antiviral activity of test compounds. The plasmid pNLRLuc contains the proviral NL-Rluc DNA cloned into pUC 18 at the PvuII site. The NL-RLuc virus was prepared by transfection of 293T cells with the plasmid pNLRLuc. Transfections were performed using the LipofectAMINE PLUS kit from Invitrogen (Carlsbad, Calif.) according to the manufacturer and the virus generated was titered in MT-2 cells. For susceptibility analyses, the titrated virus was used to infect MT-2 cells in the presence of compound, and after 5 days of incubation, cells were processed and quantitated for virus growth by the amount of expressed luciferase. Assay media was RPMI 1640 supplemented with 10% heat inactivated fetal bovine serum (FBS), 100 units/ml penicillin G/100 units/ml streptomycin, 10 mM HEPES buffer pH 7.55 and 2 mM L-glutamine. The results from at least 2 experiments were used to calculate the EC50 values. Luciferase was quantitated using the Dual Luciferase kit from Promega (Madison, Wis.). Susceptibility of viruses to compounds was determined by incubation in the presence of serial dilutions of the compound. The 50% effective concentration (EC50) was calculated by using the exponential form of the median effect equation where (Fa)=1/[1+(ED50/drug conc.)^m](Johnson V A, Byington R T. Infectivity Assay. In Techniques in HIV Research. ed. Aldovini A, Walker B D. 71-76. New York: Stockton Press. 1990). Activity equal to A refers to a compound having an EC50≤100 nM, while B and C denote compounds having an EC50 between 100 nM and 1 uM (B) or >1 uM (C).
In general terms: A reporter such as luciferase makes a cellular process visible.

Read-outs that look alike come from different tables or passages of the source. Bounds are passed on as bounds.

As for `Cc1nc(C)c([C@H](OC(C)(C)C)C(=O)O)c(N2CCC(C)(C)CC2)c1-c1ccc(CN(Cc2ccc(F)cc2)C(=O)C2CC2)cc1` [Example 40, (S)-2-(tert-butoxy)-2-(4-(4,4-dimethylpiperidin-1-yl)-5-(4-((N-(4-fluorobenzyl)cyclopropanecarboxamido)methyl)phenyl)-2,6-dimethylpyridin-3-yl)acetic acid], the EC50 (read-out: Activity) was less than 0.1 µM.

Regarding `Cc1nc(C)c([C@H](OC(C)(C)C)C(=O)O)c(N2CCC(C)(C)CC2)c1-c1ccc(CNCC2CCCCC2)cc1` [Example 17, (S)-2-(tert-butoxy)-2-(5-(4-(((cyclohexylmethyl)amino)methyl)phenyl)-4-(4,4-dimethylpiperidin-1-yl)-2,6-dimethylpyridin-3-yl)acetic acid], the EC50 (read-out: Activity) was in the range of 0.1 to 1 µM.

With `Cc1nc(C)c([C@H](OC(C)(C)C)C(=O)O)c(N2CCC(C)(C)CC2)c1-c1ccc(CNCCC2CCCCC2)cc1` [Example 13, (S)-2-(tert-butoxy)-2-(5-(4-(((2-cyclohexylethyl)amino)methyl)phenyl)-4-(4,4-dimethylpiperidin-1-yl)-2,6-dimethylpyridin-3-yl)acetic acid], where the note is “read-out: Activity”, the EC50 fell in the range of 0.1 to 1 µM.

Turning to `Cc1nc(C)c([C@H](OC(C)(C)C)C(=O)O)c(N2CCC(C)(C)CC2)c1-c1ccc(CN2CCc3ccccc3C2)cc1` [Example 53, (S)-2-(tert-Butoxy)-2-(5-(4-((3,4-dihydroisoquinolin-2(1H)-yl)methyl)phenyl)-4-(4,4-dimethylpiperidin-1-yl)-2,6-dimethylpyridin-3-yl)acetic acid], the EC50 is less than 0.1 µM (read-out: Activity) and 0.076 µM (read-out: EC50 μM).

With `Cc1nc(C)c([C@H](OC(C)(C)C)C(=O)O)c(N2CCC(C)(C)CC2)c1-c1ccc(CNCc2ccc(F)cc2)cc1` [Example 4, (S)-2-(tert-butoxy)-2-(4-(4,4-dimethylpiperidin-1-yl)-5-(4-(((4-fluorobenzyl)amino)methyl)phenyl)-2,6-dimethylpyridin-3-yl)acetic acid], the EC50 (read-out: Activity) was less than 0.1 µM.

Turning to `Cc1cc(CNCc2ccc(-c3c(C)nc(C)c([C@H](OC(C)(C)C)C(=O)O)c3N3CCC(C)(C)CC3)cc2)ccc1F` [Example 1, (S)-2-(tert-Butoxy)-2-(4-(4,4-dimethylpiperidin-1-yl)-5-(4-(((4-fluoro-3-methylbenzyl)amino)methyl)phenyl)-2,6-dimethylpyridin-3-yl)acetic acid], the EC50 is less than 0.1 µM (read-out: Activity) and 0.013 µM (read-out: EC50 μM).

On to `Cc1nc(C)c([C@H](OC(C)(C)C)C(=O)O)c(N2CCC(C)(C)CC2)c1-c1ccc(CN(Cc2ccc(F)cc2)C(=O)N2CCCC2)cc1` [Example 35, (S)-2-(tert-butoxy)-2-(4-(4,4-dimethylpiperidin-1-yl)-5-(4-((N-(4-fluorobenzyl)pyrrolidine-1-carboxamido)methyl)phenyl)-2,6-dimethylpyridin-3-yl)acetic acid], for which the EC50 (read-out: Activity) was less than 0.1 µM.

For the molecule `Cc1nc(C)c([C@H](OC(C)(C)C)C(=O)O)c(N2CCC(C)(C)CC2)c1-c1ccc(CNCCC(C)(C)C)cc1` [Example 6, (S)-2-(tert-butoxy)-2-(5-(4-(((3,3-dimethylbutyl)amino)methyl)phenyl)-4-(4,4-dimethylpiperidin-1-yl)-2,6-dimethylpyridin-3-yl)acetic acid], the EC50 (read-out: Activity) is 0.1 to 1 µM.

As for `Cc1ccc(CNCc2ccc(-c3c(C)nc(C)c([C@H](OC(C)(C)C)C(=O)O)c3N3CCC(C)(C)CC3)cc2)cc1` [Example 16, (S)-2-(tert-butoxy)-2-(4-(4,4-dimethylpiperidin-1-yl)-2,6-dimethyl-5-(4-(((4-methylbenzyl)amino)methyl)phenyl)pyridin-3-yl)acetic acid], the EC50 (read-out: Activity) is less than 0.1 µM.

Regarding `Cc1nc(C)c([C@H](OC(C)(C)C)C(=O)O)c(N2CCC(C)(C)CC2)c1-c1ccc(CN(Cc2ccc(F)cc2)C(=O)OCc2ccccc2)cc1` [Example 31, (S)-2-(5-(4-((((benzyloxy)carbonyl)(4-fluorobenzyl)amino)methyl)phenyl)-4-(4,4-dimethylpiperidin-1-yl)-2,6-dimethylpyridin-3-yl)-2-(tert-butoxy)acetic acid], the EC50 (read-out: Activity) was less than 0.1 µM.

For `Cc1nc(C)c([C@H](OC(C)(C)C)C(=O)O)c(N2CCC(C)(C)CC2)c1-c1ccc(CN(Cc2ccc(F)cc2)C(=O)c2cccs2)cc1` [Example 44, (S)-2-(tert-butoxy)-2-(4-(4,4-dimethylpiperidin-1-yl)-5-(4-((N-(4-fluorobenzyl)thiophene-2-carboxamido)methyl)phenyl)-2,6-dimethylpyridin-3-yl)acetic acid], the EC50 (read-out: Activity) is less than 0.1 µM.

Regarding `Cc1nc(C)c([C@H](OC(C)(C)C)C(=O)O)c(N2CCC(C)(C)CC2)c1-c1ccc(CN(Cc2ccc(F)cc2)C(=O)c2ccccc2)cc1` [Example 21, (S)-2-(tert-butoxy)-2-(4-(4,4-dimethylpiperidin-1-yl)-5-(4-((N-(4-fluorobenzyl)benamido)methyl)phenyl)-2,6-dimethylpyridin-3-yl)acetic acid], under “read-out: Activity”, the EC50 was less than 0.1 µM.

For the molecule `Cc1nc(C)c([C@H](OC(C)(C)C)C(=O)O)c(N2CCC(C)(C)CC2)c1-c1ccc(CN(Cc2ccc(F)cc2)C(=O)C(C)C)cc1` [Example 23, (S)-2-(tert-butoxy)-2-(4-(4,4-dimethylpiperidin-1-yl)-5-(4-((N-(4-fluorobenzyl)isobutyramido)methyl)phenyl)-2,6-dimethylpyridin-3-yl)acetic acid], under “read-out: Activity”, the EC50 was less than 0.1 µM.

As for `COc1ccccc1CCNCc1ccc(-c2c(C)nc(C)c([C@H](OC(C)(C)C)C(=O)O)c2N2CCC(C)(C)CC2)cc1` [Example 9, (S)-2-(tert-butoxy)-2-(4-(4,4-dimethylpiperidin-1-yl)-5-(4-(((2-methoxyphenethyl)amino)methyl)phenyl)-2,6-dimethylpyridin-3-yl)acetic acid], the EC50 (read-out: Activity) is less than 0.1 µM.

Consider `Cc1nc(C)c([C@H](OC(C)(C)C)C(=O)O)c(N2CCC(C)(C)CC2)c1-c1ccc(CN(Cc2ccc(F)cc2)C(=O)C2CCCC2)cc1` [Example 20, (S)-2-(tert-butoxy)-2-(4-(4,4-dimethylpiperidin-1-yl)-5-(4-((N-(4-fluorobenzyl)cyclopentanecarboxamido)methyl)phenyl)-2,6-dimethylpyridin-3-yl)acetic acid], for which the EC50 (read-out: Activity) is less than 0.1 µM.

As for `CC(=O)N(Cc1ccc(F)cc1)Cc1ccc(-c2c(C)nc(C)c([C@H](OC(C)(C)C)C(=O)O)c2N2CCC(C)(C)CC2)cc1` [Example 24, (S)-2-(tert-butoxy)-2-(4-(4,4-dimethylpiperidin-1-yl)-5-(4-((N-(4-fluorobenzyl)acetamido)methyl)phenyl)-2,6-dimethylpyridin-3-yl)acetic acid], the EC50 (read-out: Activity) is less than 0.1 µM.

`Cc1nc(C)c([C@H](OC(C)(C)C)C(=O)O)c(N2CCC(C)(C)CC2)c1-c1ccc(CNCc2ccc(Cl)cc2)cc1` [Example 15, (S)-2-(tert-butoxy)-2-(5-(4-(((4-chlorobenzyl)amino)methyl)phenyl)-4-(4,4-dimethylpiperidin-1-yl)-2,6-dimethylpyridin-3-yl)acetic acid]: where the note is “read-out: Activity”, the EC50 was less than 0.1 µM.

On to `Cc1nc(C)c([C@H](OC(C)(C)C)C(=O)O)c(N2CCC(C)(C)CC2)c1-c1ccc(COc2cccc(C(F)(F)F)c2)cc1` [Example 48, (S)-2-(tert-Butoxy)-2-(4-(4,4-dimethylpiperidin-1-yl)-2,6-dimethyl-5-(4-((3-(trifluoromethyl)phenoxy)methyl)phenyl)pyridin-3-yl)acetic acid], for which, where the note is “read-out: Activity”, the EC50 is less than 0.1 µM.

Regarding `Cc1nc(C)c([C@H](OC(C)(C)C)C(=O)O)c(N2CCC(C)(C)CC2)c1-c1ccc(CN(Cc2ccc(F)cc2)C(=O)c2cccc(C(F)(F)F)c2)cc1` [Example 38, (S)-2-(tert-butoxy)-2-(4-(4,4-dimethylpiperidin-1-yl)-5-(4-((N-(4-fluorobenzyl)-3-(trifluoromethyl)benzamio)methyl)phenyl)-2,6-dimethylpyridin-3-yl)acetic acid], under “read-out: Activity”, the EC50 is less than 0.1 µM.

As for `Cc1nc(C)c([C@H](OC(C)(C)C)C(=O)O)c(N2CCC(C)(C)CC2)c1-c1ccc(CN(Cc2ccc(F)cc2)C(=O)C(C)(C)C)cc1` [Example 25, (S)-2-(tert-butoxy)-2-(4-(4,4-dimethylpiperidin-1-yl)-5-(4-((N-(4-fluorobenzyl)pivalamido)methyl)phenyl)-2,6-dimethylpyridin-3-yl)acetic acid], the EC50 (read-out: Activity) was less than 0.1 µM.

`Cc1nc(C)c([C@H](OC(C)(C)C)C(=O)O)c(N2CCC(C)(C)CC2)c1-c1ccc(CN(Cc2ccc(F)cc2)C(=O)c2cccc(F)c2)cc1` [Example 41, (S)-2-(tert-butoxy)-2-(4-(4,4-dimethylpiperidin-1-yl)-5-(4-((3-fluoro-N-(4-fluorobenzyl)benzamido)methyl)phenyl)-2,6-dimethylpyridin-3-yl)acetic acid]: the EC50 reads like this: (read-out: Activity) less than 0.1 µM; (read-out: EC50 μM) 0.015 µM.

Source of the values: patent US20180170903A1, “PYRIDIN-3-YL ACETIC ACID DERIVATIVES AS INHIBITORS OF HUMAN IMMUNODEFICIENCY VIRUS REPLICATION” (ViiV HEALTHCARE UK (NO.5) LIMITED, priority 2015, published 2018).
